Reference: PubChem BioAssay AID1845210 (Molecular Pharmacology Branch, DTP, NCI, 2023)
Several values for one entry are separate records, joined by “and”; a condition that tells them apart may be missing. Equal values may be shown once.

System: NCI-H226 complex tumor spheroids, viability
Experiment: Anticancer human tumor NCI-H226 cell line growth inhibition;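 note: spheroids exposed to compound for 7 days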;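 for viability, T/C: 100% = DMSO vehicle control viability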
Conditions: for viability, T/C: stronger effect = lower value; active = viability on the fitted dose curve at most 10% of control; inactive = the rest
Outline: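 Single agents and combinations were tested on spheroids built from tumor cells plus HUVEC and hMSC, at half-log dilutions starting at or near clinical Cmax, else 10 microM; final DMSO 0.25% (v/v).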

COc1cc(C)[nH]c(=O)c1CN1CCc2c(Cl)cc(C(OC)C3COC3)c(Cl)c2C1=O (configuration not stated)
> 10 µM: IC50 (curve of compound)
inactive: viability, T/C (compound 0.0316 µM) 90.2% and 107% and 114% | viability, T/C (compound 0.1 µM) 113% and 115% and 102% | viability, T/C (compound 0.316 µM) 109% and 125% and 108% | viability, T/C (compound 1 µM) 110% and 115% and 102% | viability, T/C (compound 3.16 µM) 114% and 134% and 116% | viability, T/C (compound 10 µM) 116% and 120% and 108%

Cn1ncnc1[C@H]1c2n[nH]c(=O)c3cc(F)cc(c23)N[C@@H]1c1ccc(F)cc1 + CC[C@@]1(O)C(=O)OCc2c1cc1n(c2=O)Cc2cc3c(CN(C)C)c(O)ccc3nc2-1
inactive: viability, T/C (second compound 0.003 µM, first compound 0.00949 µM) 102% | viability, T/C (second compound 0.003 µM, first compound 0.03 µM) 87.8% | viability, T/C (second compound 0.003 µM, first compound 0.0949 µM) 88.7% | viability, T/C (second compound 0.003 µM, first compound 0.3 µM) 82.4% | viability, T/C (second compound 0.003 µM, first compound 0.949 µM) 93.7% | viability, T/C (second compound 0.003 µM, first compound 3 µM) 98.7% | viability, T/C (second compound 0.00949 µM, first compound 0.00949 µM) 84.4% | viability, T/C (second compound 0.00949 µM, first compound 0.03 µM) 106% | viability, T/C (second compound 0.00949 µM, first compound 0.0949 µM) 88.3% | viability, T/C (second compound 0.00949 µM, first compound 0.3 µM) 95.2% | viability, T/C (second compound 0.00949 µM, first compound 0.949 µM) 82.6% | viability, T/C (second compound 0.00949 µM, first compound 3 µM) 91.6% | viability, T/C (second compound 0.03 µM, first compound 0.00949 µM) 89.4% | viability, T/C (second compound 0.03 µM, first compound 0.03 µM) 80.1% | viability, T/C (second compound 0.03 µM, first compound 0.0949 µM) 92.2% | viability, T/C (second compound 0.03 µM, first compound 0.3 µM) 79.9% | viability, T/C (second compound 0.03 µM, first compound 0.949 µM) 91.1% | viability, T/C (second compound 0.03 µM, first compound 3 µM) 91.9% | viability, T/C (second compound 0.0949 µM, first compound 0.00949 µM) 70.8% | viability, T/C (second compound 0.0949 µM, first compound 0.03 µM) 73.5% | viability, T/C (second compound 0.0949 µM, first compound 0.0949 µM) 66.1% | viability, T/C (second compound 0.0949 µM, first compound 0.3 µM) 72.2% | viability, T/C (second compound 0.0949 µM, first compound 0.949 µM) 69.2% | viability, T/C (second compound 0.0949 µM, first compound 3 µM) 77.8% | viability, T/C (second compound 0.3 µM, first compound 0.00949 µM) 60.5% | viability, T/C (second compound 0.3 µM, first compound 0.03 µM) 59% | viability, T/C (second compound 0.3 µM, first compound 0.0949 µM) 58.9% | viability, T/C (second compound 0.3 µM, first compound 0.3 µM) 56.5% | viability, T/C (second compound 0.3 µM, first compound 0.949 µM) 59.2% | viability, T/C (second compound 0.3 µM, first compound 3 µM) 66.9%
> 3 µM: IC50 (curve of first compound, second compound 0.003 µM) | IC50 (curve of first compound, second compound 0.00949 µM) | IC50 (curve of first compound, second compound 0.03 µM) | IC50 (curve of first compound, second compound 0.0949 µM) | IC50 (curve of first compound, second compound 0.3 µM)
